Results reported in patent publication US8877748B2, “Heterocyclic fused anthraquinone derivatives, manufacturing method and pharmaceutical composition using thereof” (National Defense Medical Center, priority 2012, dated 2014).

How the values were obtained:
[1] = test system: PC-3 prostate cancer cell line; assay: SRB assay cell viability, PC-3 prostate cancer cell line; assay type: cell-based, human; details: Homo sapiens, PC-3 prostate cancer cell line, Table II prints no unit, μM printed, read-out: SRB assay: 50% inhibition of cancer cell proliferation of sample concentration (IC50) of PC-3 prostate cancer cell line
HL-60, TB = assay: NCI one-dose screening, leukemia HL-60, TB; assay type: cell-based, human; details: 10 μM
MOLT-4 = assay: NCI one-dose screening, leukemia MOLT-4; assay type: cell-based, human; details: 10 μM
SR = assay: NCI one-dose screening, leukemia SR; assay type: cell-based, human; details: 10 μM
PRMI-8226 cell line = assay: NCI one-dose screening, leukemia PRMI-8226; assay type: cell-based, human; details: 10 μM
K562cell line = assay: NCI one-dose screening, leukemia K562; assay type: cell-based, human; details: 10 μM
EKVX = assay: NCI one-dose screening, non-small cell lung cancer EKVX; assay type: cell-based, human; details: 10 μM
HOP-62 = assay: NCI one-dose screening, non-small cell lung cancer HOP-62; assay type: cell-based, human; details: 10 μM
HOP-92 = assay: NCI one-dose screening, non-small cell lung cancer HOP-92; assay type: cell-based, human; details: 10 μM
NCI-H226 = assay: NCI one-dose screening, non-small cell lung cancer NCI-H226; assay type: cell-based, human; details: 10 μM
NCI-H23 = assay: NCI one-dose screening, non-small cell lung cancer NCI-H23; assay type: cell-based, human; details: 10 μM
NCI-H460 = assay: NCI one-dose screening, non-small cell lung cancer NCI-H460; assay type: cell-based, human; details: 10 μM
NCI-H522 = assay: NCI one-dose screening, non-small cell lung cancer NCI-H522; assay type: cell-based, human; details: 10 μM
A549/ATCC = assay: NCI one-dose screening, non-small cell lung cancer A549/ATCC; assay type: cell-based, human; details: 10 μM
COLO 205 = assay: NCI one-dose screening, colon cancer COLO 205; assay type: cell-based, human; details: 10 μM
HCC-2998 = assay: NCI one-dose screening, colon cancer HCC-2998; assay type: cell-based, human; details: 10 μM
HCT-116 = assay: NCI one-dose screening, colon cancer HCT-116; assay type: cell-based, human; details: 10 μM
HCT-15 = assay: NCI one-dose screening, colon cancer HCT-15; assay type: cell-based, human; details: 10 μM
KM12 = assay: NCI one-dose screening, colon cancer KM12; assay type: cell-based, human; details: 10 μM
HT29 = assay: NCI one-dose screening, colon cancer HT29; assay type: cell-based, human; details: 10 μM
SF-268 = assay: NCI one-dose screening, CNS cancer SF-268; assay type: cell-based, human; details: 10 μM
SF-539 = assay: NCI one-dose screening, CNS cancer SF-539; assay type: cell-based, human; details: 10 μM
SNB-19 = assay: NCI one-dose screening, CNS cancer SNB-19; assay type: cell-based, human; details: 10 μM
SNB-75 = assay: NCI one-dose screening, CNS cancer SNB-75; assay type: cell-based, human; details: 10 μM
U251 = assay: NCI one-dose screening, CNS cancer U251; assay type: cell-based, human; details: 10 μM
LOX IMVI = assay: NCI one-dose screening, melanoma LOX IMVI; assay type: cell-based, human; details: 10 μM
MALME-3M = assay: NCI one-dose screening, melanoma MALME-3M; assay type: cell-based, human; details: 10 μM
M14 = assay: NCI one-dose screening, melanoma M14; assay type: cell-based, human; details: 10 μM
UACC-62 = assay: NCI one-dose screening, melanoma UACC-62; assay type: cell-based, human; details: 10 μM
UACC-257 = assay: NCI one-dose screening, melanoma UACC-257; assay type: cell-based, human; details: 10 μM
SK-MEL-2 = assay: NCI one-dose screening, melanoma SK-MEL-2; assay type: cell-based, human; details: 10 μM
SK-MEL-28 = assay: NCI one-dose screening, melanoma SK-MEL-28; assay type: cell-based, human; details: 10 μM
SK-MEL-5 = assay: NCI one-dose screening, melanoma SK-MEL-5; assay type: cell-based, human; details: 10 μM
IGROV1 = assay: NCI one-dose screening, ovarian cancer IGROV1; assay type: cell-based, human; details: 10 μM
OVCAR-3 = assay: NCI one-dose screening, ovarian cancer OVCAR-3; assay type: cell-based, human; details: 10 μM
OVCAR-5 = assay: NCI one-dose screening, ovarian cancer OVCAR-5; assay type: cell-based, human; details: 10 μM
OVCAR-8 = assay: NCI one-dose screening, ovarian cancer OVCAR-8; assay type: cell-based, human; details: 10 μM
SK-OV-3 = assay: NCI one-dose screening, ovarian cancer SK-OV-3; assay type: cell-based, human; details: 10 μM
786-O = assay: NCI one-dose screening, renal cancer 786-O; assay type: cell-based, human; details: 10 μM
[2] = NCI one-dose screening, renal cancer A489; assay type: cell-based, human; details: 10 μM
ACHN = assay: NCI one-dose screening, renal cancer ACHN; assay type: cell-based, human; details: 10 μM
SN12C = assay: NCI one-dose screening, renal cancer SN12C; assay type: cell-based, human; details: 10 μM
TK-10 = assay: NCI one-dose screening, renal cancer TK-10; assay type: cell-based, human; details: 10 μM
UO-31 = assay: NCI one-dose screening, renal cancer UO-31; assay type: cell-based, human; details: 10 μM
RXF, 393 = assay: NCI one-dose screening, renal cancer RXF, 393; assay type: cell-based, human; details: 10 μM
DU145 = assay: NCI one-dose screening, prostate cancer DU145; assay type: cell-based, human; details: 10 μM
PC-3 = assay: NCI one-dose screening, prostate cancer PC-3; assay type: cell-based, human; details: 10 μM
MCF7 = assay: NCI one-dose screening, breast cancer MCF7; assay type: cell-based, human; details: 10 μM
HS 578-T = assay: NCI one-dose screening, breast cancer HS 578-T; assay type: cell-based, human; details: 10 μM; Breast cancer
MDA-MB-231/ATCC = assay: NCI one-dose screening, breast cancer MDA-MB-231/ATCC; assay type: cell-based, human; details: 10 μM
MDA-MB-468 = assay: NCI one-dose screening, breast cancer MDA-MB-468; assay type: cell-based, human; details: 10 μM
NCl/ADR-RES = assay: NCI one-dose screening, breast cancer NCl/ADR-RES; assay type: cell-based, human; details: 10 μM; listed under Ovarian cancer
BT-549 = assay: NCI one-dose screening, breast cancer BT-549; assay type: cell-based, human; details: 10 μM
T-47D = assay: NCI one-dose screening, breast cancer T-47D; assay type: cell-based, human; details: 10 μM
MDA, -MB-435 = assay: NCI one-dose screening, breast cancer MDA, -MB-435; assay type: cell-based, human; details: 10 μM; listed under Melanoma
human tumor cell lines = assay: NCI one-dose screening, Mean / Delta / Range of growth percent over all tested cell lines; assay type: cell-based; details: 10 μM

Cc1ccc(Sc2cc3c(c4nsnc24)C(=O)c2ccccc2C3=O)c(C)c1 [C25, 4-(2,4-dimethylphenylthio)anthra[2,1-c] [1,2,5]thiadiazol-6,11-dione]
IC50 [1]: > 15 µM | Growth Percent HL-60(TB) (HL-60, TB): 99.93% | Growth Percent MOLT-4 (MOLT-4): 91.01% | Growth Percent SR (SR): 70.26% | Growth Percent RPMI-8226 (PRMI-8226 cell line): 85.14% | Growth Percent K562 (K562cell line): 67.97% | Growth Percent EKVX (EKVX): 108.79% | Growth Percent HOP-62 (HOP-62): 79.34% | Growth Percent HOP-92 (HOP-92): 97.83% | Growth Percent NCI-H226 (NCI-H226): 01.50% | Growth Percent NCI-H23 (NCI-H23): 89.40% | Growth Percent NCI-H460 (NCI-H460): 102.01% | Growth Percent NCI-H522 (NCI-H522): 96.81% | Growth Percent A549/ATCC (A549/ATCC): 109.80% | Growth Percent COLO 205 (COLO 205): 106.63% | Growth Percent HCC-2998 (HCC-2998): 121.23% | Growth Percent HCT-116 (HCT-116): 94.55% | Growth Percent HCT-15 (HCT-15): 83.04% | Growth Percent KM12 (KM12): 96.42% | Growth Percent HT29 (HT29): 101.47% | Growth Percent SF-268 (SF-268): 90.61% | Growth Percent SF-539 (SF-539): 100.22% | Growth Percent SNB-19 (SNB-19): 102.33% | Growth Percent SNB-75 (SNB-75): 76.05% | Growth Percent U251 (U251): 104.99% | Growth Percent LOX IMVI (LOX IMVI): 90.38% | Growth Percent MALME-3M (MALME-3M): 108.23% | Growth Percent M14 (M14): 100.77% | Growth Percent UACC-62 (UACC-62): 94.50% | Growth Percent UACC-257 (UACC-257): 121.93% | Growth Percent SK-MEL-2 (SK-MEL-2): 98.52% | Growth Percent SK-MEL-28 (SK-MEL-28): 118.64% | Growth Percent SK-MEL-5 (SK-MEL-5): 109.99% | Growth Percent IGROV1 (IGROV1): 95.00% | Growth Percent OVCAR-3 (OVCAR-3): 105.38% | Growth Percent OVCAR-5 (OVCAR-5): 106.46% | Growth Percent OVCAR-8 (OVCAR-8): 104.59% | Growth Percent SK-OV-3 (SK-OV-3): 110.36% | Growth Percent 786-0 (786-O): 105.11% | Growth Percent A498 [2]: 84.37% | Growth Percent ACHN (ACHN): 94.24% | Growth Percent SN12C (SN12C): 98.68% | Growth Percent TK-10 (TK-10): 127.11% | Growth Percent UO-31 (UO-31): 65.72% | Growth Percent RXF 393 (RXF, 393): 105.93% | Growth Percent DU145 (DU145): 109.69% | Growth Percent PC-3 (PC-3): 76.11% | Growth Percent MCF7 (MCF7): 79.77% | Growth Percent HS 578T (HS 578-T): 99.06% | Growth Percent MDA-MB-231/ATCC (MDA-MB-231/ATCC): 92.27% | Growth Percent MDA-MB-468 (MDA-MB-468): 100.45% | Growth Percent NCI/ADR-RES (NCl/ADR-RES): 97.75% | Growth Percent BT-549 (BT-549): 94.55% | Growth Percent T-47D (T-47D): 75.36% | Growth Percent MDA-MB-435 (MDA, -MB-435): 105.58% | Growth Percent Delta (human tumor cell lines; delta over all cell lines): 31.54% | Growth Percent Mean (human tumor cell lines; mean over all cell lines): 97.26% | Growth Percent Range (human tumor cell lines; range over all cell lines): 61.39%
